Here are results for 30 compounds from patent US5240946A, “((2-(amino-3,4-dioxo-1-cyclobuten-1-yl)amino)alkyl)-acid derivatives” (American Home Products Corporation, priority 1992, dated 1993).

One assay addresses NMDA receptors. In words: (3H)CPP binding displacement in rat brain homogenate. The note with it: for IC50: (3H)CPP 8 nM, rat brain homogenate, 23° C. The procedure:
It was determined that the compounds of this invention are competitive NMDA antagonists by determining their ability to inhibit binding of 3-(2-carboxypiperazinyl-4-yl)propyl-1-phosphonic acid (CPP), a known competitive NMDA antagonist, at NMDA receptors in rat brain homogenate. In a manner similar to the procedure of Murphy et al., J. Pharmacol. Exp. Therap. 240 (3) 778 (1987), rat brain homogenates from which endogenous glutamate had been removed were incubated with (3H)CPP (8 nM), the compound being tested and then buffer each for 15 minutes at 23° C. to obtain a final volume of 2 milliliters. The amount of radio ligand displaced by the test compound is expressed as a percentile of the radio ligand displaced by NMDA. The inhibitory concentration of test compound that will displace 50% of the labeled CPP is determined from dose-responseevaluations.
(§1) Where the displacement of CPP binding is expressed as a percentage, it is at the μM concentration given at the concentration in the parenthesis. Similarly, where percent inhibition of lethality at dose in parenthesis.

The test system of assay [1] is male Swiss-albino mice (CD-1 strain), NMDA-induced lethality. In words: NMDA induced lethality in mice (survival). In kind it is in vivo, mouse. The following applies: for ED50: Mus musculus, 0.5 h, mice pretreated 30 min before NMDA 195 mg/kg i.p., observed 30 min; for percent inhibition of lethality: NMDA 195 mg/kg i.p. The procedure:
(§2) The mice were then observed for 30 minutes, noting the latency of onset of generalized myoclonus (uncontrollable hind leg scratching of limbs and/or torso muscle jerking with loss of righting reflex) and death. From the latter, the ED50 for survival is determined. In this standard experimental test procedure, the specific compounds tested and their activity, which representatively establish the activity for all the compounds herein, is presented in the following Table.
as §1

Assay [2] relates to NMDA-induced convulsions in mice. The note with it: Lehmann et al. 1987; cited from earlier work.
For assay [3], the system named is ischemic brain damage in gerbils. The note with it: Boast et al., Brain Research 1988; cited from earlier work.
The subject of assay [4] is Parkinsonian-like symptoms induced by MPTP in rats. The note with it: Turski et al., Nature 1991; cited from earlier work.
In assay [5] the test system is male Swiss-albino mice (CD-1 strain), generalized myoclonus. In words: NMDA-induced generalized myoclonus in mice. In kind it is in vivo. The following applies: Mus musculus, ip, read-out: ED90 dose for generalized myoclonus. The procedure:
as §2

Where [6] appears, read: at dose in parenthesis 5 (in mg/kg).

Broadly, the IC50 is the concentration that inhibits the measured activity by half. Lower therefore signals greater potency in that assay. Broadly, the ED50 is the dose at which the effect has come halfway, by size or by number of responders. The compound `CCOC(=O)CNc1c(N)c(=O)c1=O` [1(a), N-(2-amino-3,4-dioxo-1-cyclobutenyl)glycine ethyl ester] came in with an IC50 on NMDA receptors of 190000 nM. For the same compound, the ED50 in assay [1] was > 100 mg/kg.

As for `Nc1c(NCC(=O)O)c(=O)c1=O` [1(b), N-(2-amino-3,4-dioxo-1-cyclobutenyl)glycine], in assay [1], the ED50 was > 100 mg/kg.

`Nc1c(NCCCC(=O)O)c(=O)c1=O` [1(c), 4-[(2-amino-3,4-dioxo-1-cyclobutenyl)amino]butanoic acid] showed an IC50 at NMDA receptors of 10200 nM. Further, in assay [1], the ED50 is > 100 mg/kg.

Compound `CNc1c(NCCC(=O)O)c(=O)c1=O` [2(a), N-[2-(methylamino)-3,4-dioxo-1-cyclobutenyl]beta-alanine] displayed an IC50 on NMDA receptors of 19600 nM. Besides, the ED50 in assay [1] is > 100 mg/kg.

`O=C(O)CCNc1c(NCc2ccccc2)c(=O)c1=O` [2(b), 3-[[3,4-dioxo-2[(phenylmethyl)amino]-1-cyclobutenyl]amino]propanoic acid]: the IC50 on NMDA receptors was > 100000 nM. In addition, the ED50 in assay [1] is > 100 mg/kg.

Consider `C=C(C)CN(CC(=O)O)c1c(N)c(=O)c1=O` [3(a), N-(2-amino-3,4-dioxo-1-cyclobutenyl)-N-(2-methyl-2-propenyl)glycine], for which the IC50 at NMDA receptors worked out at 30000 nM. For the same compound, the ED50 in assay [1] is > 100 mg/kg.

With `Nc1c(N(CC(=O)O)Cc2ccccc2)c(=O)c1=O` [3(b), N-(2-amino-3,4-dioxo-1-cyclobutenyl)-N-(phenylmethyl)glycine], in the assay with NMDA receptors (at 100 μM), the “displacement of CPP binding” value worked out at 50%. Also, in assay [1], the ED50 was > 100 mg/kg.

With `Nc1c(NCP(=O)(O)O)c(=O)c1=O` [4(a), [[(2-amino-3,4-dioxo-1-cyclobutenyl)amino]methyl]phosphonic acid], the IC50 on NMDA receptors is > 10000 nM.

In the case of `Nc1c(NCCCP(=O)(O)O)c(=O)c1=O` [4(b), [3-[(2-amino-3,4-dioxo-1-cyclobuten-1-yl)amino]propyl]phosphonic acid], at NMDA receptors, the IC50 amounted to 2590 nM. The median effective dose (ED50) in assay [1] was > 100 mg/kg.

In the case of `Nc1c(NCCCCP(=O)(O)O)c(=O)c1=O` [4(c), [4-[(2-amino-3,4-dioxo-1-cyclobuten-1-yl)amino]butyl]phosphonic acid], the “displacement of CPP binding” value in the assay on NMDA receptors (at 10 μM) amounted to 68%. The ED50 in assay [1] is > 30 mg/kg.

Regarding `CN(CP(=O)(O)O)c1c(N)c(=O)c1=O` [6(a), [[(2-amino-3,4-dioxo-1-cyclobuten-1-yl)methylamino]methyl]phosphonic acid], on NMDA receptors, the IC50 was > 10000 nM.

Consider `CC1(C)CNc2c(c(=O)c2=O)N(CCP(=O)(O)O)C1` [9(a), [2-(4,4-dimethyl-8,9-dioxo-2,6-diazabicyclo[5.2.0]non-1(7)-en-2-yl)ethyl]phosphonic acid], for which the IC50 at NMDA receptors is 280 nM. In addition, in assay [1] (setting [6]), the “percent inhibition of lethality” value is listed as 50%.

Regarding `O=c1c2c(c1=O)N(CCCP(=O)(O)O)CCCN2` [9(b), [3-(8,9-dioxo-2,6-diazabicyclo[5.2.0]non-1(7)-en-2-yl)propyl]phosphonic acid], the IC50 at NMDA receptors was > 1000 nM. Also, the ED50 in assay [1] is > 10 mg/kg.

As to `O=c1c2c(c1=O)N(C/C=C/P(=O)(O)O)CCCN2` [9(c), [(E)-3-(8,9-dioxo-2,6-diazabicyclo[5.2.0]non-1(7)-en-2-yl)-1-propenyl]phosphonic acid], the IC50 on NMDA receptors is > 10000 nM. For the same compound, the ED50 in assay [1] was > 5 mg/kg.

As to `O=C(O)CCN1CCCNc2c1c(=O)c2=O` [10(a), 3-(8,9-dioxo-2,6-diazabicyclo[5.2.0]non-1(7)-en-2-yl)propanoic acid], at NMDA receptors, the IC50 stood at 340 nM. Also, in assay [1], the ED50 was > 20 mg/kg.

As to `O=c1c2c(c1=O)N(CCc1nnn[nH]1)CCCN2` [11(a), 2-[2-(1H-tetrazol-5-yl)ethyl]-2,6-diazabicyclo[5.2.0]non-1(7)-ene-8,9-dione], in the assay on NMDA receptors (at 10 μM), the “displacement of CPP binding” value was determined as 40%. Moreover, the ED50 in assay [1] was > 5 mg/kg.

As for `O=C(O)C1CN(CCCP(=O)(O)O)CCN1` (stereo not shown) [CPP, 4-(3-phosphonopropyl)-2-piperazinecarboxylic acid], the “prevention of NMDA-induced convulsions” value in assay [2] is “NMDA-induced convulsions have been prevented by CPP in mice”. Further, in assay [3], the “prevention of ischemic brain damage” value was “shown to prevent ischemic brain damage in gerbils”. Besides, the “prevention of Parkinsonian-like symptoms induced by MPTP” value in assay [4] was “shown to prevent the Parkinsonian-like symptoms induced by MPTP”.

Consider `Nc1c(NCCC(=O)O)c(=O)c1=O` [Example 1, N-(2-Amino-3,4-dioxo-1-cyclobuten-1-yl)beta-alanine], for which the ED50 in assay [1] is > 100 mg/kg.

Turning to `Nc1c(NCCn2oc(=O)[nH]c2=O)c(=O)c1=O` [Example 2, 2-[2-[(2-Amino-3,4-dioxo-1-cyclobuten-1-yl)amino]ethyl]-1,2,4-oxadiazolidine-3,5-dione], the IC50 at NMDA receptors is 5200 nM. In assay [1], the ED50 is > 100 mg/kg.

Regarding `C=CCN(CC(=O)O)c1c(N)c(=O)c1=O` [Example 3, N-(2-Amino-3,4-dioxo-1-cyclobuten-1-yl)-N-(2-propenyl)glycine], the IC50 on NMDA receptors stood at 10500 nM. The ED50 in assay [1] was > 100 mg/kg.

For the compound `Nc1c(NCCP(=O)(O)O)c(=O)c1=O` [Example 4, [2-[(2-Amino-3,4-dioxo-1-cyclobuten-1-yl)amino]ethyl]phosphonic acid], on NMDA receptors, the IC50 was 471 nM.

Consider `Nc1c(NC/C=C/CP(=O)(O)O)c(=O)c1=O` [Example 5, [(E)-4-[(2-Amino-3,4-dioxo-1-cyclobuten-1-yl)amino]-2-butenyl]phosphonic acid], for which the “displacement of CPP binding” value with NMDA receptors (at 10 μM) is given as 52%. The ED50 in assay [1] was > 30 mg/kg.

`CN(CCP(=O)(O)O)c1c(N)c(=O)c1=O` [Example 6, [2-[(2-Amino-3,4-dioxo-1-cyclobuten-1-yl)methylamino]ethyl]phosphonic acid] yielded an IC50 on NMDA receptors of 1000 nM. Moreover, in assay [1] (at dose in parenthesis 50 (in mg/kg)), the “percent inhibition of lethality” value stood at 50%.

For `O=c1c2c(c1=O)N(CCP(=O)(O)O)CCN2` [Example 7, [2-(7,8-Dioxo-2,5-diazabicyclo[4.2.0]oct-1(6)-en-2-yl)ethyl]phosphonic acid], on NMDA receptors, the IC50 is 92 nM. For the same compound, the ED50 in assay [1] came to 6.2 mg/kg.

As for `O=c1c2c(c1=O)N(CCP(=O)(O)O)CCCN2` [Example 8, [2-(8,9-Dioxo-2,6-diazabicyclo[5.2.0]non-1(7)-en-2-yl)ethyl]phosphonic acid], on NMDA receptors, the IC50 was 30 nM. Also, the ED50 in assay [1] is 2.1 mg/kg.

On NMDA receptors, `O=c1c2c(c1=O)N(CCP(=O)(O)O)CC(O)CN2` (stereo not shown) [Example 9, [2-(4-hydroxy-8,9-dioxo-2,6-diazabicyclo[5.2.0]non-1(7)-en-2-yl)ethyl]phosphonic acid] came in with an IC50 of 19 nM. Besides, in assay [1], the ED50 turned out to be 1.8 mg/kg.

Regarding `O=C(O)CN1CCCNc2c1c(=O)c2=O` [Example 10, 8,9-Dioxo-2,6-diazabicyclo[5.2.0]non-1(7)-ene-2-acetic acid], the IC50 on NMDA receptors came to 550 nM. Also, the ED50 in assay [1] is > 20 mg/kg.

`O=c1c2c(c1=O)N(Cc1nnn[nH]1)CCCN2` [Example 11, 2-[(1H-Tetrazol-5-yl)methyl]-2,6-diazabicyclo[5.2.0]non-1(7)-ene-8,9-dione]: the IC50 on NMDA receptors was determined as 38 nM. For the same compound, the ED50 in assay [1] was > 10 mg/kg.

Turning to `O=c1c2c(c1=O)N(CCP(=O)(O)O)CCCCN2` [Example 12, [2-(9,10-Dioxo-2,7-diazabicyclo[6.2.0]dec-1(8)-en-2-yl)ethyl]phosphonic acid], at NMDA receptors, the IC50 is 41 nM. Also, in assay [1] (setting [6]), the “percent inhibition of lethality” value is reported as 80%.

In the case of `CN[C@H](CC(=O)O)C(=O)O` [NMDA, N-methyl-D-aspartic acid], the ED90 in assay [5] was 195 mg/kg.
